Assays:
PD-1/PD-L1 = PD-1/PD-L1 (Homo sapiens (Human), UniProt Q9NZQ7); assay: PD-1/PD-L1 Homogeneous Time-Resolved Fluorescence (HTRF) binding assay; conditions: 3 nM PD1, 10 nM PD-L1, 25° C., PBS pH 7.4
Experimental: PD-1/PD-L1 Homogeneous Time-Resolved Fluorescence (HTRF) Binding Assay
The assays were conducted in a standard black 384-well polystyrene plate with a final volume of 20 μL. Inhibitors were first serially diluted in DMSO and then added to the plate wells before the addition of other reaction components. The final concentration of DMSO in the assay was 1%. The assays were carried out at 25° C. in the PBS buffer (pH 7.4) with 0.05% Tween-20 and 0.1% BSA. Recombinant human PD-L1 protein (19-238) with a Histag at the C-terminus was purchased from AcroBiosystems (PD1-H5229). Recombinant human PD-1 protein (25-167) with Fe tag at the C-terminus was also purchased from AcroBiosystems (PD1-H5257). PD-L1 and PD-1 proteins were diluted in the assay buffer and 10 μL was added to the plate well. Plates were centrifuged and proteins were preincubated with inhibitors for 40 minutes. The incubation was followed by the addition of 10 μL of HTRF detection buffer supplemented with Europium cryptate-labeled anti-human IgG (PerkinElmer-AD0212) specific for Fe and anti-His antibody conjugated to SureLight®-Allophycocyanin (APC, PerkinElmer-AD0059H). After centrifugation, the plate was incubated at 25° C. for 60 min. before reading on a PHERAstar FS plate reader (665 nm/620 nm ratio). Final concentrations in the assay were—3 nM PD1, 10 nM PD-L1, 1 nM europium anti-human IgG and 20 nM anti-His-Allophycocyanin. IC50 determination was performed by fitting the curve of percent control activity versus the log of the inhibitor concentration.

PD-L1/CHO-K1 cells = PD-L1/CHO-K1 cells (Homo sapiens (Human), UniProt Q9NZQ7); assay: PD-L1 internalization (FACS, PD-L1/CHO-K1 cells); type: cell-based; conditions: % activation of PD-L1 internalization = 1 − PD-L1 signal; 17 hours incubation
Experimental: Day 1. Seeding cells: Digest the PD-L1/CHO-K1 cells by trypsin in the flask, then counting the cell number and diluted to 1×10^5 cells/ml. Seeding cells to 6 well plate (Corning, #3516), 2 mL/well. The plates were incubated at 37° C., […] incubator for 24 hours.
Day 2. Preparing compounds and treated cells: Dilute GLC01-258 from 15 mM to 0.5 mM by using DMSO, and 15 mM compound were serial diluted from 15 mM˜15 nM by DMSO, Then 500 times dilute the compounds by using assay buffer. Prepare 0.2% DMSO in assay buffer used for Vehicle control and low control. Take out the plates, aspirated the medium and thrown away. Adding 2 mL of the diluted compounds, vehicle control and low control to corresponding wells. Then incubated the plates for 17 hours at 37° C., 5% CO2 incubator.
Day 3. Preparing samples for FACS: After 17 hours incubation, discarded medium and washed by the PBS. Cells in each well were Digested by trypsin. Centrifuge and discard the supernatant, then wash the cells by DPBS (Ca^2+, Mg^2+ free) for twice. 10 fold dilute the antibody (PE-conjugated mouse anti-human CD274) by DPBS, then adding the staining solution to compounds treated samples and vehicle control sample. The low control only add DPBS without antibody. Incubate the plates at room temperature for 20 minutes and protect from light. After 20 minutes, wash the samples by DPBS for twice. Then centrifuge and discard the supernatant. Resuspend cells by 300 uL DPBS and transfer the samples to 5 mL Polystryrene Round-Bottom Tube (Falcon, #352054), then tested by BD FACSCanto. […].
Set the PD-L1 signal of vehicle control as 100%, PD-L1 signal of Low control as 0%. Then calculate the compound treated samples' PD-L1 signal
0% PD-L1 signal: Low control which stained without anti-CD274
100% PD-L1 Signal: vehicle control which stained with anti-CD274
The % activation of PD-L1 Internalization=1−PD-L1 signal of compound.

[1] = target: extracellular domains of PD-L1 (Homo sapiens (Human), UniProt Q9NZQ7); assay: PD-L1 dimerization (biochemical protein-protein interaction assay); conditions: PDL1-Eu and PDL1-A2, 25° C., 120 min
Experimental: Compounds were tested in biochemical protein-protein interaction assays to determine if they can specifically dimerize the extracellular domains of PD-L1. • (1) Dilute cpd 1:3 in succession in DMSO for each column for 10±0 pts (refer to dilution plate map) • (2) Transfer 0.2 μL cpds solution in each row to 384 assay plate using Echo, each column containing 2 replicates (refer to assay plate map). • (3) Add 20 μL prepared mixture include PDL1-Eu and PDL1-A2 solution to assay plate, centrifuge at 1000 rpm for 1 min. • (4) Incubate at 25° C. for 120 min. • (5) Read fluorescence signal on Envision 2104 plate reader. • (6) Read the Ratio (665 nm/615 nm) signal on Envision. • (7) Analyze the raw data using the equation (V. Data analysis)

Chain of PD-L1/CHO-K1 cells (Q9NZQ7 19-290): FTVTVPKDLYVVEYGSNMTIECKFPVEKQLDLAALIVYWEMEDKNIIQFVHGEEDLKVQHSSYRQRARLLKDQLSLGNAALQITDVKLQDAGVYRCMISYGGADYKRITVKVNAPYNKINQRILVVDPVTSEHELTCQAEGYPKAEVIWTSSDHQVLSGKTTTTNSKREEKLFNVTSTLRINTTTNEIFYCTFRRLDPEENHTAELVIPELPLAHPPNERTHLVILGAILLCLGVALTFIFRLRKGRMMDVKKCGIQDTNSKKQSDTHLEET
Chain of PD-1/PD-L1 (Q9NZQ7 19-238): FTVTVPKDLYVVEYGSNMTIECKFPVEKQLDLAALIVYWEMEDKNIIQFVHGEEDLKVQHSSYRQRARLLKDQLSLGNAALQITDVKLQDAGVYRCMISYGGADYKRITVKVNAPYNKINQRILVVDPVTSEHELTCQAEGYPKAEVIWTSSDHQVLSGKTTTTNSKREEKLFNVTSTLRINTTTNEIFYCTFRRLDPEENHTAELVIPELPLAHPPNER
Chain of extracellular domains of PD-L1 (Q9NZQ7 19-238): as above

| Compound | IC50 (PD-1/PD-L1) [nM] | Internalization (PD-L1/CHO-K1 cells) [%] | EC50 [1] [nM] |
| --- | --- | --- | --- |
| O=C1COc2cc(-c3cccc(-c4cccc(-c5ccc6c(c5)OCC(=O)N6C[C@@H]5CCCN5)c4Cl)c3Cl)ccc2N1C[C@@H]1CCCN1 [Compound 411, 7,7′-(2,2′-dichloro-[1,1′-biphenyl]-3,3′-diyl)bis(4-(((S)-pyrrolidin-2-yl)methyl)-2H-benzo[b][1,4]oxazin-3(4H)-one)] | 6.14 | 66.90 | 357 |
| O=C(O)[C@@H]1C[C@@H](O)CN1CCN1C(=O)COc2cc(-c3cccc(-c4cccc(-c5ccc6c(c5)OCC(=O)N6CCN5C[C@H](O)C[C@H]5C(=O)O)c4Cl)c3Cl)ccc21 [Compound 454] | 1.42 | 5.20 | 326 |
| O=C1COc2cc(-c3cccc(-c4cccc(-c5ccc6c(c5)OCC(=O)N6C[C@@H]5C[C@@H](O)CN5)c4Cl)c3Cl)ccc2N1C[C@@H]1C[C@@H](O)CN1 [Compound 472] | 5.27 | 17.20 | 359 |
| O=C(O)C[C@H](CO)NCCN1C(=O)COc2cc(-c3cccc(-c4cccc(-c5ccc6c(c5)OCC(=O)N6CCN[C@@H](CO)CC(=O)O)c4Cl)c3Cl)ccc21 [Compound 528] | 5.04 | 13.30 | 175 |
| C[C@H]1CC[C@@H](CN2C(=O)COc3cc(-c4cccc(-c5cccc(-c6ccc7c(c6)OCC(=O)N7C[C@@H]6CC[C@H](C)N6)c5Cl)c4Cl)ccc32)N1 [Compound 535] | 4.41 | 21.00 | 354 |
| NCCN1C(=O)COc2cc(-c3cccc(-c4cccc(-c5ccc6c(c5)OCC(=O)N6CCN)c4Cl)c3Cl)ccc21 [Compound 538] | 8.18 | 3.60 | – |
| O=C1COc2cc(-c3cccc(-c4cccc(-c5ccc6c(c5)OCC(=O)N6C[C@H]5NC6CCC5C6)c4Cl)c3Cl)ccc2N1C[C@H]1NC2CCC1C2 [Compound 539] | 7.73 | 11.60 | – |
| O=C1COc2cc(-c3cccc(-c4cccc(-c5ccc6c(c5)OCC(=O)N6C[C@@H]5CC6(CC6)CN5)c4Cl)c3Cl)ccc2N1C[C@@H]1CC2(CC2)CN1 [Compound 540] | 10.5 | 10.60 | – |
| O=C1COc2cc(-c3cccc(-c4cccc(-c5ccc6c(c5)OCC(=O)N6CCN[C@@H](CO)C(=O)O)c4Cl)c3Cl)ccc2N1 [Compound 542] | 5.24 | 3.30 | – |
| C[C@@H](O)[C@H](NCCN1C(=O)COc2cc(-c3cccc(-c4cccc(-c5ccc6c(c5)OCC(=O)N6CCN[C@H](C(=O)O)[C@@H](C)O)c4Cl)c3Cl)ccc21)C(=O)O [Compound 545] | 4.81 | 7.80 | – |
| C[C@@H](CN1C(=O)COc2cc(-c3cccc(-c4cccc(-c5ccc6c(c5)OCC(=O)N6C[C@H](C)N[C@@H](CO)C(=O)O)c4Cl)c3Cl)ccc21)N[C@@H](CO)C(=O)O [Compound 550] | 3.96 | 3.00 | 225 |
| C[C@H](O)[C@@H](NCCN1C(=O)COc2cc(-c3cccc(-c4cccc(-c5ccc6c(c5)OCC(=O)N6CCN[C@@H](C(=O)O)[C@H](C)O)c4Cl)c3Cl)ccc21)C(=O)O [Compound 551] | 2.64 | 3.10 | – |
| O=C(O)[C@@H](CCO)NCCN1C(=O)COc2cc(-c3cccc(-c4cccc(-c5ccc6c(c5)OCC(=O)N6CCN[C@H](CCO)C(=O)O)c4Cl)c3Cl)ccc21 [Compound 552] | 7.25 | 4.90 | – |
| O=C(O)[C@H](CO)NCCN1C(=O)COc2c1ccc(-c1cccc(-c3cccc(-c4ccc5c(c4F)OCC(=O)N5CCN[C@@H](CO)C(=O)O)c3Cl)c1Cl)c2F [Compound 557] | 5.33 | 20.30 | – |
| O=C(O)[C@H](CCO)NCCN1C(=O)COc2cc(-c3cccc(-c4cccc(-c5ccc6c(c5)OCC(=O)N6CCN[C@@H](CCO)C(=O)O)c4Cl)c3Cl)ccc21 [Compound 560] | 7.78 | 3.10 | – |
| O=C(O)[C@H](CO)NCCN1C(=O)COc2cc(-c3cccc(-c4cccc(-c5cc(F)c6c(c5)OCC(=O)N6CCN[C@@H](CO)C(=O)O)c4Cl)c3Cl)cc(F)c21 [Compound 561] | 8.95 | 5.30 | – |
| C[C@H](CN1C(=O)COc2cc(-c3cccc(-c4cccc(-c5ccc6c(c5)OCC(=O)N6C[C@@H](C)N[C@@H](CO)C(=O)O)c4Cl)c3Cl)ccc21)N[C@@H](CO)C(=O)O [Compound 563, (2S,2'S)-2,2′-(((2R,2′R)-((2,2′-dichloro-[1,1′-biphenyl]-3,3′-diyl)bis(3-oxo-2,3-dihydro-4H-benzo[b][1,4]oxazine-7,4-diyl))bis(propane-1,2-diyl))bis(azanediyl))bis(3-hydroxypropanoic acid)] | 7.18 | 25.50 | 37.7 |
| Cc1c(-c2ccc3c(c2)OCC(=O)N3CCN[C@@H](CO)C(=O)O)cccc1-c1cccc(-c2ccc3c(c2)OCC(=O)N3CCN[C@@H](CO)C(=O)O)c1C [Compound 585] | 10.9 | 39.00 | 130 |
| COC[C@H](NCCN1C(=O)COc2cc(-c3cccc(-c4cccc(-c5ccc6c(c5)OCC(=O)N6CCN[C@@H](COC)C(=O)O)c4Cl)c3Cl)ccc21)C(=O)O [Compound 588] | 7.35 | 2.00 | 154 |

Source: patent US20250340529A1, “Heterocyclic Compounds as Immunomodulators of PD-L1 Interactions” (Ascletis BioScience Co., Ltd, priority 2021, published 2025)
